System: BV2 microglia cells
Assay: NO (nitrite) production by LPS-activated BV2 microglia, Griess Reagent System
Type: cell-based
Conditions: treated 1 hour before 100 ng/ml LPS, nitrite in media 24 hours later
Procedure: BV2 microglia cells were treated with LIC (LiCl), LSC (Lithium saccharinate), LSCBTN and LSCSAR at 12.5 and 25 mM in DMEM for 1 hour prior to activation of microglia by 100 ng/ml LPS. Nitrite (NO^2−), a stable breakdown product of NO, was measured in the media 24 hours later using a Griess Reagent System (Promega).

| SMILES | inhibition of NO production by LPS-activated BV2 microglia (25 mM) | attenuation of NO production by LPS-activated BV2 microglia, comparison between lithium forms (12.5 and 25 mM (both/all concentrations tested)) |
| --- | --- | --- |
| [Cl-].[Li+] [LIC, LiCl] | only partially effective |  |
| O=C1[N-]S(=O)(=O)c2ccccc21.[Li+] [LSC, Lithium saccharinate] |  | outperformed LIC |
